Assay results taken from ChEMBL document CHEMBL3286276, “Novel estrogen receptor (ER) modulators containing various hydrophobic bent-core structures” (Bioorg Med Chem, 2014).

What was measured:
[1] = target: T1, Estrogen receptor (Homo sapiens) (UniProt P03372); experiment: Displacement of [6,7-3H]17beta-estradiol from human recombinant estrogen receptor-alpha after 18 hrs by liquid scintillation counting analysis
T1 sequence (whole entry): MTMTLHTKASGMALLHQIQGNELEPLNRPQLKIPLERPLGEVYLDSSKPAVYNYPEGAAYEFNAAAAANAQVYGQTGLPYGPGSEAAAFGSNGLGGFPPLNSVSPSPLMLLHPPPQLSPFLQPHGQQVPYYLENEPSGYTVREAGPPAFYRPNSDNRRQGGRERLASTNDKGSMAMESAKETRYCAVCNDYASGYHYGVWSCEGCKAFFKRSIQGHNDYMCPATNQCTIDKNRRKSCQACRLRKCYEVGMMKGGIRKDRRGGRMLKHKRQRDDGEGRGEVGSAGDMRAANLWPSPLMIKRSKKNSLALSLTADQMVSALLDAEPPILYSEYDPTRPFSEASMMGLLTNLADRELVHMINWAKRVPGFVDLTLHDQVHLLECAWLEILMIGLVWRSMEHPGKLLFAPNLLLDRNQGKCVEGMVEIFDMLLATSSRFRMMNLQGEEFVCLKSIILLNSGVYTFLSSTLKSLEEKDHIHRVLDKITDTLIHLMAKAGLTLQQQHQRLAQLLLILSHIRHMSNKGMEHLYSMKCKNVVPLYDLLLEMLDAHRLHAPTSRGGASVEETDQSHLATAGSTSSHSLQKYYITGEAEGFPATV

[2] = target: T1, Estrogen receptor (Homo sapiens); experiment: Agonist activity at estrogen receptor in human MCF7 cells assessed as induction of cell proliferation at 1 x 10^-13 to 1 x 10^-5 M after 5 days by WST-8 assay relative to estradiol; type: cell-based

inhibition [1]: Dose-dependent effect | Emax [2]: 17%
SMILES: CN(C)CCOc1ccc(C23CC4CC(CC(c5ccc(O)cc5)(C4)C2)C3)cc1
